The text below walks through data of US12139488B2, “Pyrido[3,2-d]pyrimidine compounds uses thereof for treating a proliferative disease” (Universite de Montreal, priority 2021, dated 2024).

One test deals with BRAF (Homo sapiens (Human), UniProt P15056). As to the kind of experiment: BRAF kinase activity assay (ADP-Glo). In kind it is biochemical. The settings on record: read-out: Kinase IC50 (nM) BRAF. In outline: (§1)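 ADP-Glo luminescence assay of BRAF and CRAF kinase reactions with MEK1 substrate and ATP. Reactions ran 2 h at 30 °C with compound over nine concentrations from 100 nM to 0.01 nM, at 0.05% DMSO final. IC50 came from four-parameter variable-slope fits of % inhibition.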
Sequence of BRAF (P15056 whole entry): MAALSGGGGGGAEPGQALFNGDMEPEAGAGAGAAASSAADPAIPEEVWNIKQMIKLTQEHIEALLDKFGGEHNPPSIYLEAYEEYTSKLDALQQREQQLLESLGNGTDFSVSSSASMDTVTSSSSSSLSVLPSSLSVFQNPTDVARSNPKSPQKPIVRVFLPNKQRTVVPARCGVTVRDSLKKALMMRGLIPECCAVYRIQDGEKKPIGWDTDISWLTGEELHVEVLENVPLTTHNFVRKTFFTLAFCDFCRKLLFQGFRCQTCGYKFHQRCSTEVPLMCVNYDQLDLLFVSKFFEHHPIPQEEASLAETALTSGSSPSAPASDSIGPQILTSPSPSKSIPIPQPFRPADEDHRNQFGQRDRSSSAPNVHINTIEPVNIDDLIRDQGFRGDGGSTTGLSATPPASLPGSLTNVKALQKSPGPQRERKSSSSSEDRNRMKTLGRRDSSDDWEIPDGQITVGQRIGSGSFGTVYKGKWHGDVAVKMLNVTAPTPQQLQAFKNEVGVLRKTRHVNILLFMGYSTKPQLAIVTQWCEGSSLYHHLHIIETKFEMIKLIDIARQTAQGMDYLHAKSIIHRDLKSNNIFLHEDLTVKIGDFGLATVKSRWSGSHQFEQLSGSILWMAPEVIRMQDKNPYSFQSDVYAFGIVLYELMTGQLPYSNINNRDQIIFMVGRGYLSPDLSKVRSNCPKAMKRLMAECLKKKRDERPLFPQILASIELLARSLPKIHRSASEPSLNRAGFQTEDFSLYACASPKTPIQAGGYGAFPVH
A general note: ADP-Glo first removes unused ATP, then detects ADP through luciferase.

The target in the next test is CRAF (Homo sapiens, UniProt P04049). Put plainly: CRAF kinase activity assay (ADP-Glo). The settings on record: read-out: Kinase IC50 (nM) CRAF. In kind it is biochemical. In outline: as §1
Sequence of CRAF (P04049 whole entry, looked up): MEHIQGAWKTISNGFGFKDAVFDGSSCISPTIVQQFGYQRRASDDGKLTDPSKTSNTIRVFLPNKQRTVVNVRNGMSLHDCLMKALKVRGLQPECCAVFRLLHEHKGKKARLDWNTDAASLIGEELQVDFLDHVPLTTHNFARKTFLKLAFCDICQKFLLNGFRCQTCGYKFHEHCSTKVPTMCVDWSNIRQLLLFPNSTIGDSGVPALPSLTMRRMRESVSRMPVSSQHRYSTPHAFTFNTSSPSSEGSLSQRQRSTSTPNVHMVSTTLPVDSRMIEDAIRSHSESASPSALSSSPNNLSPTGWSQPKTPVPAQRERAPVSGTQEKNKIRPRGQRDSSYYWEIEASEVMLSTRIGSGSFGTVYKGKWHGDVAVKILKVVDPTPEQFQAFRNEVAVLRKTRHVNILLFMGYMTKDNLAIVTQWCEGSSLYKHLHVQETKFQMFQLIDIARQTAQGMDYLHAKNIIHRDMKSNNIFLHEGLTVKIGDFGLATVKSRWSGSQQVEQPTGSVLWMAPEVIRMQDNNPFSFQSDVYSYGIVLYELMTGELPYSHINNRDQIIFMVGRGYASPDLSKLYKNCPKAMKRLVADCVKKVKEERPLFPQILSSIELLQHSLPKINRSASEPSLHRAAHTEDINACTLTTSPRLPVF
In test [1] the test system is pERK in HCT-116 cells (KRAS G13D). As to the kind of experiment: Phospho-ERK inhibition (AlphaLISA SureFire Ultra p-ERK 1/2), HCT116. The format is cell-based, human. A digest of the protocol:
(§2)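 Cells in RPMI-1640 with 5% FBS were plated overnight, then exposed for 1 h to ten-point dilutions (typically 10 μM to 0.33 nM; 0.5% DMSO). Lysates were read by AlphaLISA SureFire Ultra for p-ERK1/2 Thr202/Tyr204; % inhibition used trametinib background and DMSO controls, with IC50 from four-parameter fits.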
A general note: Alpha assays give light when donor and acceptor beads are brought close together.

The subject of test [2] is pERK in SW480 cells (KRAS G12D). Put plainly: Phospho-ERK inhibition (AlphaLISA), SW480. The format is cell-based, human. A digest of the protocol:
as §2

The target of another test is ARAF (Homo sapiens (Human), UniProt P10398). As to the kind of experiment: ARAF kinase activity assay (AlphaLISA p-MEK 1/2 detection). The format is biochemical. Here is the method: Compound preparation: solid samples of each substances in 1 dram vials were suspended in DMSO (Fisher Scientific) at a stock concentration of 20 mM. Stocks were kept at −20° C. and protected from light. If solubility of the compound at 20 mM appeared to be an issue, the initial concentration of the DMSO stock was changed to 10 mM or 5 mM.
Sequence of ARAF (P10398 whole entry): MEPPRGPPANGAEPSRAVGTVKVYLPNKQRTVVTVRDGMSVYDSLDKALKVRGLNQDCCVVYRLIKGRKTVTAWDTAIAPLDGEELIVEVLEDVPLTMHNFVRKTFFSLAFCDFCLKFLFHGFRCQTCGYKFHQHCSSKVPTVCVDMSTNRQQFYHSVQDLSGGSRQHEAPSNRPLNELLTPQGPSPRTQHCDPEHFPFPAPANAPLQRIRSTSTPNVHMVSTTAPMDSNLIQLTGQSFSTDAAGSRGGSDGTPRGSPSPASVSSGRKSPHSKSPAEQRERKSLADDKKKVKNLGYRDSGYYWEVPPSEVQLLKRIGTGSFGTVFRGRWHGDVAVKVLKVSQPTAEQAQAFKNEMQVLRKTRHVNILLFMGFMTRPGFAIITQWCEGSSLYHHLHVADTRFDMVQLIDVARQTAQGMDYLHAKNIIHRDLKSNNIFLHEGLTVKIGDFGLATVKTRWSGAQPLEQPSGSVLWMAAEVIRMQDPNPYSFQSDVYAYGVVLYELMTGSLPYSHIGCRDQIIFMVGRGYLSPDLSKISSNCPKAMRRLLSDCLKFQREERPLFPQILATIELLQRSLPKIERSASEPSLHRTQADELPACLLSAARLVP
In vitro enzymatic reactions were used for evaluating compounds intrinsic activity against BRAF, CRAF and ARAF. For BRAF and CRAF, 0.375 nM of purified GST-tagged kinases (cat #B4062-10 UG and cat #R1656-10 UG respectively from Millipore Sigma) were incubated with 75 nM of kinase-dead MEK1 substrate (cat #40075; BPS Bioscience) in the presence of 10 μM of Ultrapure ATP (cat #V9102; Promega; part V915A) with and without the test compound in a buffer containing 50 mM HEPES pH 7.5, 10 mM MgCl2, 1 mM EDTA, 0.01% Brij-35 and 2 mM DTT. Separate reactions were performed with the MEK1 substrate and ATP as a blank control. ARAF, kinase reactions were rigorously the same with the exception that kinase concentration was raised to 3.75 nM (cat #1768-0000-1; Reaction Biology).
For compound treatment, 5 μL/well of test substance solution are placed in a 384-well proxyplate (Perkin Elmer) and mixed with 2× concentrated kinase reactions. The dilution series is selected so that nine concentrations cover a range from 100 nM to 0.01 nM. […] The final concentration of DMSO in the assay is set at 0.05%.
ARAF kinase reactions were carried out for a total of 2 hours at 30° C. and then stopped by addition of EDTA at a final concentration of 40 mM. Reactions were then detected using the AlphaLISA® SureFire® Ultra™ p-MEK 1/2 (Ser218/222) (PerkinElmer) kit. Reactions were performed with 5 μL of kinase reaction according to the manufacturer's specifications in 384-well proxyplates (Perkin Elmer) followed by overnight incubation of the AlphaLISA® reactions at room temperature in a humidified chamber. After completion of the detection reactions, the signals were recorded on a Synergy Neo2 plate reader (Biotek) equipped with AlphaLISA® filters. The effect of each compound dilution on the pMEK signal generated by ARAF reactions was expressed in % inhibition and calculated as follows. An internal 100% inhibition control (average of luminescence in kinase reactions comprising kinase dead MEK1 substrate alone) was included in each plate to measure of pMEK background and was subtracted from each data point. The average of DMSO (vehicle) controls (set as 0% inhibition) was also established and used to calculate % inhibition: % inhibition=100*(1−((pMEK signalcompound)/(pMEK signalDMSO)))
IC50 values were obtained by plotting the kinase inhibition values and fitting the dose-activity curves using a log(agonist) versus response-variable slope (four parameters) function using either GraphPadPrism (V7.0) or Dotmatics Screening Ultra platform. Standards included in the ARAF kinase assay were Belvarafenib (MedChem Express cat #HY-109080; CAS #1446113-23-0), LXH254 (MedChem Express cat #HY-112089; CAS #1800398-38-2) and BGB283 (cat #HY-18957; CAS #1446090-79-4).

The subject of test [3] is pERK and pMEK in RAS-mutant HCT-116 cells. Put plainly: Immunoblot analysis of pERK and pMEK in HCT-116 cells. In kind it is cell-based, human. To be noted: 1 h treatment, FIG. 2. Here is the method:
For immunoblotting analysis, 500,000 HCT-116 cells were plated in 1 mL of complete RPMI-1640 growth medium in 24-well flat-bottomed transparent dishes (Costar). Cells were maintained overnight at 37° C. under 5% CO2 before treatment with compounds' dilution series for one hour.
Cells were then washed once in PBS and lized in 250 μL of Igepal Lysis Buffer (50 mM Tris-HCl pH 7.5, 150 mM NaCl, 1% Igepal-CA630, 1 mM EDTA, 10% Glycerol) supplemented with Leupeptin, Aprotinin, PMSF, phosphatase inhibitor cocktail (Sigma) and Na3VO4 at 4° C. for 15 minutes with gentle rocking. Cell extracts were then cleared by centrifugation at 20,000 g at 4° C. for 10 minutes. Cleared lysates were then transferred on ice in fresh tubes and then boiled in sample loading buffer (100 mM Tris-HCl pH 6.8, 4% SDS, 0.2% bromophenol blue, 20% glycerol, 200 mM p-mercaptoethanol) for 5 minutes prior to fractionation by SDS-PAGE and transfer to nitrocellulose membranes (PALL). […]
On the technique in general: Immunoblotting shows a protein as a band on a membrane.

The mark [4] stands for this setting: HCT116 cells, class symbol before the bracket.
The mark [5] stands for this setting: SW480 cells, class symbol before the bracket.
Setting [6] is: lowest % inhibition value of the IC50 curve, HCT116.
The mark [7] stands for this setting: lowest % inhibition value of the IC50 curve, SW480.

Where two headings read alike, the source gives them in different places.

With `Nc1cccc2c1nnn2-c1ccc2ncnc(Nc3c(F)ccc(NS(=O)(=O)c4cccc(Cl)c4Cl)c3F)c2n1` [Example 100], the IC50 at BRAF was under 1 nM; at CRAF, under 10 nM; in test [1] (setting [4]), under 500 nM; in test [2] (setting [5]), under 500 nM. Also, the “HCT116 pERK Ymin %” value in test [1] (HCT116 cells, Ymin in brackets) was −16%. For the same compound, the “SW480 pERK Ymin %” value in test [2] (SW480 cells, Ymin in brackets) is recorded as 16%.

On to `Cc1c(Cl)cccc1S(=O)(=O)Nc1cccc(Nc2ncnc3ccc(-n4cnc5ccccc54)nc23)c1F` [Example 240], for which the IC50 was 1 to 10 nM at BRAF (Table 5); 10 to 50 nM on CRAF (Table 5); under 500 nM in test [1] (HCT116 cells, Table 5); under 500 nM in test [2] (SW480 cells, Table 5). For the same compound, the “HCT116 pERK Ymin %” value in test [1] (lowest value of the curve, HCT116, Table 5) is reported as 7%. In test [2] (lowest value of the curve, SW480, Table 5), the “SW480 pERK Ymin %” value is given as “(−8) %”.

For the compound `Cc1ccc(NC(=O)c2ccnc(C(F)(F)F)c2)cc1-c1cc(OCCO)nc(N2CCOCC2)c1` [LXH254, reference compound], the IC50 at ARAF is over 10 nM.

Take `CCCS(=O)(=O)Nc1ccc(F)c(C(=O)c2c[nH]c3ncc(Cl)cc23)c1F` [PLX4720, reference compound]: the “paradoxical induction of pERK or pMEK signaling (immunoblot)” value in test [3] is listed as “induces the pathway”. In addition, the “YMIN of pERK IC50 dose response curve (paradoxical induction of pERK signaling)” value in test [1] (RAS-mutant HCT116 cells, FIG. 1) is on record as about −600%.

In the case of `Nc1cccc2c1ncn2-c1ccc2ncnc(Nc3c(F)ccc(NS(=O)(=O)c4ccccc4Cl)c3F)c2n1` [Example 83], the IC50 on BRAF is 1 to 10 nM; at CRAF, under 10 nM; in test [1] (setting [4]), under 500 nM; in test [2] (setting [5]) it was under 500 nM. Besides, the “HCT116 pERK Ymin %” value in test [1] (HCT116 cells, Ymin in brackets) is −7.3%. Besides, the “SW480 pERK Ymin %” value in test [2] (SW480 cells, Ymin in brackets) was determined as 2.5%.

In the case of `COc1ccc(S(=O)(=O)Nc2ccc(F)c(Nc3ncnc4ccc(-n5cnc6c(C(N)=O)cccc65)nc34)c2F)c(C)c1` [Example 75], the IC50 on BRAF is over 10 nM; at CRAF it was 10 to 50 nM; in test [1] (setting [4]), 500 to 1000 nM; in test [2] (setting [5]) it was 500 to 1000 nM. Also, the “HCT116 pERK Ymin %” value in test [1] (HCT116 cells, Ymin in brackets) stood at 0%. Also, in test [2] (SW480 cells, Ymin in brackets), the “SW480 pERK Ymin %” value stood at 1%.

On to `COc1ccc(S(=O)(=O)Nc2ccc(F)c(Nc3ncnc4ccc(-c5cnn6ccccc56)nc34)c2F)c(C)c1` [Ex 73], for which the IC50 on BRAF was over 10 nM; on CRAF it was over 50 nM; in test [1] (setting [4]), 1000 to 10000 nM; in test [2] (setting [5]), 1000 to 10000 nM. The “HCT116 pERK Ymin %” value in test [1] (HCT116 cells, Ymin in brackets) was found to be 5%. Further, in test [2] (SW480 cells, Ymin in brackets), the “SW480 pERK Ymin %” value is on record as −1%.

For `COc1ccc(S(=O)(=O)Nc2ccc(F)c(Nc3ncnc4ccc(-n5cnc6c(N)cccc65)nc34)c2F)c(C)c1` [Ex 76], the IC50 on BRAF was 1 to 10 nM; on CRAF, 10 to 50 nM; in test [1] (setting [4]), under 500 nM; in test [2] (setting [5]), under 500 nM. Further, the “HCT116 pERK Ymin %” value in test [1] (HCT116 cells, Ymin in brackets) was 8%. Moreover, the “SW480 pERK Ymin %” value in test [2] (SW480 cells, Ymin in brackets) was determined as 6%.

As for `O=C1CCc2c(Oc3ccc4c(c3)[C@@H]3[C@H](O4)[C@H]3c3nc4ccc(C(F)(F)F)cc4[nH]3)ccnc2N1` [BGB283, reference compound], the IC50 on ARAF is over 10 nM.

Turning to `COc1ccc(S(=O)(=O)Nc2ccc(F)c(Nc3ncnc4ccc(-n5cnc6ccccc65)nc34)c2F)cc1` [Example 1], the IC50 was in the range of 1 to 10 nM at BRAF; 10 to 50 nM at CRAF; 1000 to 10000 nM in test [1] (HCT116 cells, 1 h treatment); 1000 to 10000 nM in test [2] (SW480 cells, 1 h treatment). For the same compound, the “HCT116 pERK Ymin %” value in test [1] (setting [6]) worked out at 8%. For the same compound, the “SW480 pERK Ymin %” value in test [2] (setting [7]) is given as 4%.

Turning to `CCc1ccc(S(=O)(=O)Nc2ccc(F)c(Nc3ncnc4ccc(-n5cnc6ccccc65)nc34)c2F)cc1` [Example 10], the IC50 at BRAF is over 10 nM; on CRAF, over 50 nM; in test [1] (HCT116 cells, 1 h treatment), 10000 to 30000 nM; in test [2] (SW480 cells, 1 h treatment), 1000 to 10000 nM. Besides, in test [1] (setting [6]), the “HCT116 pERK Ymin %” value is reported as 1%. Besides, the “SW480 pERK Ymin %” value in test [2] (setting [7]) is on record as 12%.

Consider `Cc1nc(N)ccc1S(=O)(=O)Nc1ccc(F)c(Nc2ncnc3ccc(-n4cnc5c(N)cccc54)nc23)c1F` [Example 353], for which the IC50 in test [1] (HCT116 cells, class symbol) is 1000 to 10000 nM; on ARAF it was 1 to 10 nM.

In the case of `COc1ccc(S(=O)(=O)Nc2ccc(F)c(Nc3ncnc4ccc(-c5cncs5)nc34)c2F)c(C)c1` [Ex 59], the IC50 on BRAF was over 10 nM; at CRAF, 10 to 50 nM; in test [1] (setting [4]) it was 500 to 1000 nM; in test [2] (setting [5]) it was 500 to 1000 nM. Besides, in test [1] (HCT116 cells, Ymin in brackets), the “HCT116 pERK Ymin %” value was −0.7%. The “SW480 pERK Ymin %” value in test [2] (SW480 cells, Ymin in brackets) is recorded as −4.9%.

On to `Nc1ncnc2c1ncn2-c1ccc2ncnc(Nc3c(F)ccc(NS(=O)(=O)c4ccccc4Cl)c3F)c2n1` [Ex 89], for which the IC50 at BRAF was 1 to 10 nM; at CRAF it was over 50 nM; in test [1] (setting [4]), 1000 to 10000 nM; in test [2] (setting [5]), 1000 to 10000 nM. For the same compound, the “HCT116 pERK Ymin %” value in test [1] (HCT116 cells, Ymin in brackets) is listed as 8%. For the same compound, the “SW480 pERK Ymin %” value in test [2] (SW480 cells, Ymin in brackets) is listed as −3%.

In general, IC50 refers to the midpoint of a concentration-inhibition curve.
